Test results published in article PMC8128204, “Development of 3-methyl/3-(morpholinomethyl)benzofuran derivatives as novel antitumor agents towards non-small cell lung cancer cells” (Journal of Enzyme Inhibition and Medicinal Chemistry, 2021).
In brackets after ≈: the same amount, converted by molar mass. Where two headings read alike, the source gives them in different places.

Experiments:
A549 cells [1] = test: Annexin V-FITC/PI apoptosis assay, A549; assay type: cell-based, human; settings: A549, at IC50 concentration; control 1.37%
Description: The apoptotic effect of the three benzofurans (4b, 15a and 16a) was evaluated using Annexin VFITC/PI (AV/PI) dual staining assay to validate if their observed cytotoxic effect is due to non-specific necrosis or physiological apoptosis. […] Moreover, the apoptotic effects of 3-(morpholinomethyl)benzofuran derivatives 15a and 16a were evaluated in NCI-H23 cancer cell line.
(§1) Lung cancer A549 cells were treated with benzofuran 4b, whereas NCI-H23 cells were treated […]
(§2) twice with ice-cold phosphate buffered saline (PBS). Subsequently, the treated cells were collected by centrifugation, fixed in ice-cold 70% (v/v) ethanol, washed with PBS, re-suspended with 100 μg/mL RNase, stained with 40 μg/mL PI, and analyzed by flow cytometry using FACS Calibur (Becton Dickinson, BD, Franklin Lakes, NJ, USA). The cell cycle distributions were calculated using CellQuest software 5.1 (Becton Dickinson).
3. Annexin V-FITC Apoptosis Assay […]
Cells were then rinsed in binding buffer and resuspended in 150 μL of binding buffer with the addition of 1 μL of DAPI (1 μg/μL in PBS). Cells were then analyzed using the flow cytometer BD FACS Canto II and the results were interpreted with FlowJo7.6.4 software (Tree Star, Ashland, 4. VEGFR-2 Kinase Inhibitory Activity […]

VEGFR-2 = VEGFR-2 (Homo sapiens, UniProt P35968); test: VEGFR-2 kinase inhibitory assay (VEGFR2(KDR) Kinase Assay Kit)
Description: CA, USA), according to the manufacturer’s instructions.

[2] = test system: M. tuberculosis ATCC 27294; test: Microplate Alamar Blue Assay, anti-tubercular activity; assay type: cell-based; settings: MABA, 7 days
WI-38 cell line = test: Cytotoxic activity against non-tumorigenic WI-38 cell line; assay type: cell-based, human
Excerpt: Antiproliferative agents are designed to inhibit the cellular growth of tumour cells selectively, while sparing the normal cells.

NCI-H23 cells = test: MTT anti-proliferative assay, NCI-H23; assay type: cell-based, human; settings: Homo sapiens, NCI-H23, 48 h, mean ± SD of three experiments
Description: (§3) The antiproliferative activity of the synthesised derivatives of the 3-methylbenzofuran series (4a–d, 6a–c, 8a–c and 11) and the 3-(morpholinomethyl)benzofuran series (15a–c, 16a–b, 17a–b and 18) was evaluated against non-small cell lung carcinoma (NSCLC) A549 and NCI-H23 cell lines, following the procedures of the MTT assay. […] 1. Anti-proliferative action toward human […] cell lines […]
(§4) The two examined human non-small cell lung carcinoma cell lines (A549 and NCI-H23) have been obtained from American Type Culture Collection (ATCC). The cells were maintained in Dulbecco's modified Eagle's medium (DMEM) supplemented with 10% heat inactivated fetal calf serum (GIBCO), penicillin (100 U/ml) and streptomycin (100 µg/ml) at 37 °C in humidified atmosphere containing 5% CO2. […]
(§5) flask in 5 ml of culture medium. The anti-proliferative activity of the tested 3-methylbenzofurans (4a-d, 6a-c, 8a-c and 11) and 3-(morpholinomethyl)benzofurans (15a-c, 16a-b, 17a-b and 18) measured in vitro using the MTT assay. Briefly, cells were plated out in 96-well microtiter plate (0.5X10^4 cells/well) and incubated for 24 h before treatment with the tested benzofurans to allow cells to attach to the bottom of the well of the plate. Tested benzofuranswere were dissolved in DMSO at 1 mg/ml immediately before use and diluted to the appropriate volume just before addition to the cell culture. […]
(§6) added to the cells (three wells were prepared for each individual dose). Cells were incubated with […]
(§7) At the end of exposure, MTT […]
(§8) solution in PBS (5 mg/ml) was then added to all well including no cell blank and left to incubate for 90 min. The formation of formazan crystals were visually confirmed using phase contract microscopy. DMSO (100 µl/well) was added to dissolve the formazan crystals with shaking for 10 min after which the absorbance was read at 590 nm against no cell blanks on a microplate reader.
(§9) The relation between percent of surviving fraction and log drug concentration is plotted to get the survival curve for each cell line.

A549 cells [3] = test: Cell cycle analysis (PI flow cytometry), A549; assay type: cell-based, human; settings: A549, 24 h at IC50 concentration
Description: as §1
as §2, with “Dickinson). […]” for “Dickinson).”

A549 cells [4] = test: MTT anti-proliferative assay, A549; assay type: cell-based, human; settings: Homo sapiens, A549, 48 h, mean ± SD of three experiments
Description: as §3, §4, §5, §6, §7, §8, §9

Chain of VEGFR-2 (P35968 20-1356): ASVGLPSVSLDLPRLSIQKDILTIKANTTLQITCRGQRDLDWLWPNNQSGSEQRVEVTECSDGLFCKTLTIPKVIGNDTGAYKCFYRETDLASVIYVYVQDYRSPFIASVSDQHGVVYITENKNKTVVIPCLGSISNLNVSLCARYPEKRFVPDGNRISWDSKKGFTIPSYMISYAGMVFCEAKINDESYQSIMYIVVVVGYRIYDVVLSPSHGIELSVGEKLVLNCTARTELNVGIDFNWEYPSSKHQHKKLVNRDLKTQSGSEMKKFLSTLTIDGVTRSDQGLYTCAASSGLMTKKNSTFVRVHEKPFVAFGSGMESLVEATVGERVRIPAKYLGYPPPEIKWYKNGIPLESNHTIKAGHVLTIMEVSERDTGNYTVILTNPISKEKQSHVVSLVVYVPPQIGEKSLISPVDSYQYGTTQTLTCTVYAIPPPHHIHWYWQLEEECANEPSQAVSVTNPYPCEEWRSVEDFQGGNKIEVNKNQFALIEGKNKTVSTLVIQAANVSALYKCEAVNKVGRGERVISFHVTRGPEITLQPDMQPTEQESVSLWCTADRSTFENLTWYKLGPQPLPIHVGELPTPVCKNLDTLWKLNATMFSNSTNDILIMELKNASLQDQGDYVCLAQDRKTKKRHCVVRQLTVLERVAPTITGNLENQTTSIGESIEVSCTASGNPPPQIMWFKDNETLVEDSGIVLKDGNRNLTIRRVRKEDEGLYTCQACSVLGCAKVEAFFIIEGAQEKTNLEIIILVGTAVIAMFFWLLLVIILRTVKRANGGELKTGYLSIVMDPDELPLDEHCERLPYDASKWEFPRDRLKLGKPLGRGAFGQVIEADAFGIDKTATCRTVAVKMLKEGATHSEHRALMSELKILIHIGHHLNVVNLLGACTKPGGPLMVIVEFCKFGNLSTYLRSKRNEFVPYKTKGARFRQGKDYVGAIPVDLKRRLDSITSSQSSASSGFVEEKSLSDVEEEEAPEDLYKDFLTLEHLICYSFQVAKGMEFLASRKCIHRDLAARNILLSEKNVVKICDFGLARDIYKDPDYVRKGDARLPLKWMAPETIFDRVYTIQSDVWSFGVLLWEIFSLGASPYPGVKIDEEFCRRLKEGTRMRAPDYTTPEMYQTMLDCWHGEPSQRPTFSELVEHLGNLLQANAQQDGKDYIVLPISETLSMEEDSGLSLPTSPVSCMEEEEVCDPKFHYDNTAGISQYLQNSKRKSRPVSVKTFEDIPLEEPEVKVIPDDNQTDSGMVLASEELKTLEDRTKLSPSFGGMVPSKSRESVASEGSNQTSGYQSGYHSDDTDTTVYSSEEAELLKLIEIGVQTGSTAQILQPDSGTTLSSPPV

COc1ccc(NC(=S)NNC(=O)c2oc3ccccc3c2C)cc1 [Compound 4b, N-(4-Methoxyphenyl)-2-(3-methylbenzofuran-2-carbonyl)hydrazine-1-carbothioamide]
apoptosis (total) (A549 cells [1]): 42.05% | IC50 (VEGFR-2): 0.078 ± 0.0046 µM | MIC [2]: 500 µg/mL (≈ 1410 µM) | MIC ([2]; Mycobacterium tuberculosis, ATCC27294, 168 h, read-out: MIC): 250 µg/mL (≈ 703 µM) | Mean tumour selectivity (WI-38 cell line; S.I. WI-38/A549 and NCI-H23): 5.3 | IC50 (WI-38 cell line; non-tumorigenic human lung WI-38 cell line): 19.5 ± 1.18 µM | IC50 (NCI-H23 cells): 5.9 ± 0.29 µM | S phase, fold vs control (A549 cells [3]; attenuated): 0.46 fold | G2/M phase cell population, fold vs control (A549 cells [3]; augmentation): 2.67 fold | sub-G1 phase cell population, fold vs control (A549 cells [3]; augmentation): 21.76 fold | G0–G1 phase, fold vs control (A549 cells [3]; reduced): 0.67 fold | IC50 (A549 cells [4]): 1.48 ± 0.08 µM | melting point: 190 to 193 °C
